Like-named read-outs stand apart in the source and are kept apart here.
What was measured:
[1] = test system: B16-F10 melanoma cell line; test: chronic cell growth (cell proliferation) assay, 4 days; type: cell-based; conditions: for IC50: read-out: ED50, dose required to reduce cell growth by 50%, 5760 min
Description: FIG. 2B depicts the results of a chronic cell growth assay wherein the number of cells expressed as a percentage of a control sample (y-axis) are plotted as a function of the concentration (nM) of bryostatin 1 (squares), 26-epibryostatin 1 (circles), or PMA (triangles).
(§1) The unmodified and C-26 modified bryostatins were used in [^3 H]thymidine incorporation and cell proliferation assays. The phorbol ester PMA, a ligand for protein kinase C was also used in this example to provide a separate control sample. The selection of PMA as a control sample is particularly appealing since bryostatins antagonize a subset of the actions of PMA. [^3 H]Thymidine incorporation is a measure of DNA synthesis, which is often used as a marker of cell replication. Chronic cell growth assays are an alternative measure of cell growth, usually performed over longer periods of time.
For the cell proliferation assays, the B16-F10 melanoma cell line with high pulmonary metastatic potency (from the laboratory of Dr. I. J. Fidler, Frederick Cancer Research and Development Center, Frederick, Md.) were plated at a density of 10^3 cells/well in Costar 12-well tissue culture plates. The cells were then treated with different concentrations of bryostatin 1, 26-epi-bryostatin 1, or PMA in 0.1% DMSO 1 and 3 days after plating. Total cell number was determined 4 days after plating.

[2] = test system: [3H]thymidine incorporation; test: [3H]thymidine incorporation with or without bisindolyl-maleimide I; type: cell-based; conditions: for [3H]thymidine incorporation expressed as percent of control: bryostatin 1 or epi-bryostatin 1 3 uM
Experimental: (§2) For [^3 H]-thymidine incorporation assays, melanoma cells growing in log phase at a density of 40-50% confluency were treated for one day with the indicated compound.
(§3) Bisindolyl-maleimide I was used to inhibit both PMA and bryostatin 1 induced protein kinase C activity and bryostatin 1 induced inhibition of [^3 H]thymidine incorporation.
The effect of bisindolyl-maleimide I cotreatment on induction of protein kinase C activity and [^3 H]thymidine incorporation in response to PMA or bryostatin 1.

[3] = test system: B16/F10 melanoma cell line; test: cells; type: cell-based; conditions: for cytostatic / cytotoxic effect: 3 uM
Experimental: The effect of bryostatin 1 and phorbol 12-myristate 13-acetate (PMA) on the proliferation of the B16/F10 melanoma cell line was first determined. Bryostatin 1 inhibited [^3 H]thymidine incorporation with an ED50 of 600±80 nM (n=3) and with a maximum inhibition of 60% (FIG. 2A). […] The effect on cell growth of chronic treatment with bryostatin 1 or PMA was also determined. […] In contrast to bryostatin 1, PMA increased the cell growth by 75±10% (n=3) at a dose of 10 nM; the dose response curve was biphasic, with smaller effects at higher and lower applied doses (FIG. 2B).
During the 4-day treatment schedule, the number of cells in the control group increased 80 to 100-fold.

[4] = test system: B16/F10 melanoma cell line; test: [3H]thymidine incorporation assay in melanoma cells (one day treatment); type: cell-based; conditions: for IC50: read-out: ED50, inhibition of [3H]thymidine incorporation
Description: FIG. 2A depicts the percentage of incorporation of [^3 H]thymidine relative to a control sample (y-axis) plotted as a function of the concentration (nM) of bryostatin 1 (squares) or 26-epibryostatin 1 (circles)
as §1, §2

protein kinase C [5] = conditions: cited from earlier work
C57BL/6 mice = test: in vivo toxicity in C57BL/6 mice, 7 days observation
Experimental: C57BL/6 mice were injected with either 500 ug/kg or 1500 ug/kg 26-epi-bryostatin 1 or 150 ug/kg or 500 ug/kg bryostatin 1.

protein kinase C [6] = type: cell-based; conditions: for fold increase of protein kinase C activity: PMA 10 nM, bryostatin 1 3 uM, 10 min
Experimental: as §3
Protein kinase C activity was assayed in cell lysates by measuring the incorporation of ^32 P from [γ-^32 P]ATP into acetylated myelin basic protein peptide (4-14) (Ac-MBP(4-14)) by methods known in the art (Nakadate et al., Biochem. Pharmacol., 37, 1541-1545 (1988)). The cells were treated at 60-75% confluency with bryostatin 1, 26-epi-bryostatin 1 and/or bisindolyl-maleimide I for 10 min. The cells were lysed by sonication in 20 mM Tris-HCl, pH 7.4, containing 5 mM EGTA and 20 uM leupeptin. 5 ul of cell lysate was added to 15 ul kinase buffer (20 mM HEPES, pH 7.5, 10 mM MgCl2, 0.5 mM CaCl2, 1 mM 4-(2-aminoethyl)benzenesulfonyl fluoride, 20 uM leupeptin, and 10 ug/ml aprotinin) containing 50 uM substrate, and 2 uCi [γ-^32 P]ATP at a concentration 50 uM ATP. The kinase reaction was incubated for 10 minutes at 30 ° C. The incorporated radioactivity was measured with a Pharmacia Biotech 1218 liquid scintillation counter.

protein kinase C [7] = conditions: cited from earlier work; remark: listed apart in the source
humans = conditions: three infusions of 2 μg/kg; cited from earlier work
mice = conditions: cited from earlier work
[8] = test system: lymphoma, renal cancer, melanoma, leukemia, and ovarian cancer; conditions: cited from earlier work
[9] = with BIM-I (1 uM), PMA 10 nM, 1440 min
[10] = without BIM-I, PMA 10 nM, 1440 min

SMILES: CCCC=CC=CC(=O)OC1C(=CC(=O)OC)CC2CC(C(C)O)OC(=O)CC(O)CC3CC(OC(C)=O)C(C)(C)C(O)(CC4CC(=CC(=O)OC)CC(C=CC(C)(C)C1(O)O2)O4)O3 (stereo not drawn) [26-epi-bryostatin 1]
- growth arrest ([1]; 3 uM, 4 days): almost complete growth arrest
- inhibition of cell growth (maximal, highest dose tested) ([1]; 4 days, 3 uM): 97±3%
- maximum extent of inhibition relative to bryostatin 1, cell growth ([1]; compared with bryostatin 1): greater than for bryostatin 1
- reduction in potency relative to bryostatin 1, chronic cell growth assay ([1]; compared with bryostatin 1): 3 fold
- IC50 ([1]; chronic treatment, 4 days): 140 ± 30 nM
- [3H]thymidine incorporation expressed as percent of control [2, 9]: 20 ± 5% of control
- [3H]thymidine incorporation expressed as percent of control [2, 10]: 21 ± 3% of control
- cytostatic / cytotoxic effect [3]: powerful cytostatic agent with no cytotoxic effect
- cell death (trypan blue exclusion) ([3]; after treatment in the cell growth assay, 5760 min, 3 µM): less than 1%
- maximum inhibition of [3H]thymidine incorporation ([4]; B16/F10 melanoma, highest dose tested 3 uM): 80±5%
- inhibitory potency relative to bryostatin 1, [3H]thymidine incorporation ([4]; compared with bryostatin 1): inhibitory potency similar to that of bryostatin 1
- maximum extent of inhibition relative to bryostatin 1, [3H]thymidine incorporation ([4]; compared with bryostatin 1): greater than for bryostatin 1
- IC50 ([4]; B16/F10 melanoma, one day, 1440 min): 600 ± 120 nM
- affinity for protein kinase C of 26-epi-bryostatin 1 (protein kinase C [5]; compared with bryostatin 1): significantly reduced affinity
- toxicity (C57BL/6 mice; 500 ug/kg injected): only relatively minor toxic effects
- toxicity (C57BL/6 mice; 1500 ug/kg injected): only relatively minor toxic effects
- therapeutic index relative to bryostatin 1 (C57BL/6 mice; compared with bryostatin 1): higher therapeutic index
- toxicity relative to bryostatin 1 (C57BL/6 mice; compared with bryostatin 1): significantly less toxic than bryostatin 1

SMILES: CN(C)CCCn1cc(C2=C(c3c[nH]c4ccccc34)C(=O)NC2=O)c2ccccc21 [BIM-I, bisindolyl-maleimide I]
- inhibition of PMA or bryostatin 1 induced protein kinase C enzymatic activity (protein kinase C [6]; BIM-I 1 uM, PMA 10 nM or bryostatin 1 3 uM): completely inhibited
- effect on PMA-induced increase in [3H]thymidine incorporation ([2]; BIM-I 1 uM, PMA 10 nM): inhibited the modest PMA-induced increase
- effect on bryostatin induced decrease in thymidine incorporation ([2]; BIM-I 1 uM, bryostatin 1 3 uM): slightly enhanced
- effect on inhibition of thymidine incorporation by bryostatin 1 ([2]; BIM-I 1 uM, bryostatin 1 3 uM): did not block
- [3H]thymidine incorporation expressed as percent of control ([2]; with BIM-I (1 uM), PMA 10 nM): 91 ± 2% of control
- protein kinase C inhibition (protein kinase C [7]): powerful and specific protein kinase C inhibitor

SMILES: CCC/C=C/C=C/C(=O)O[C@H]1/C(=C/C(=O)OC)C[C@H]2C[C@H]([C@@H](C)OC(C)=O)OC(=O)C[C@H](O)C[C@@H]3C[C@H](OC(C)=O)C(C)(C)[C@](O)(C[C@@H]4C/C(=C/C(=O)OC)C[C@H](/C=C/C(C)(C)[C@]1(O)O2)O4)O3 [C-26 acetate ester of bryostatin]
- binding activity / affinity for protein kinase C (protein kinase C [5]): decreased binding activity

SMILES: CCCC(=O)O[C@H]1/C(=C/C(=O)OC)C[C@H]2C[C@H]([C@H](C)O)OC(=O)C[C@H](O)C[C@@H]3C[C@H](OC(=O)C(C)(C)C)C(C)(C)[C@](O)(C[C@@H]4C/C(=C/C(=O)OC)C[C@H](/C=C/C(C)(C)[C@]1(O)O2)O4)O3 [C-26 epimer of bryostatin 4]
- binding activity / affinity for protein kinase C (protein kinase C [5]): decreased binding activity

SMILES: CCCCCCCCCCCCCC(=O)O[C@@H]1[C@@H](C)[C@@]2(O)[C@@H](C=C(CO)C[C@]3(O)C(=O)C(C)=C[C@@H]23)[C@@H]2C(C)(C)[C@]12OC(C)=O [PMA, phorbol 12-myristate 13-acetate]
- fold increase of protein kinase C activity (protein kinase C [6]; with BIM-I (1 uM)): 1.08 ± 0.1 fold
- fold increase of protein kinase C activity (protein kinase C [6]; without BIM-I): 4.4 ± 0.1 fold
- activation at 0.01 µM ([1]; Mus musculus, B16-F10, 96 h, 10 nM, chronic treatment, read-out: increase in cell growth): 75 ± 10%
- dose response curve of cell growth ([1]; smaller effects at higher and lower applied doses than 10 nM): biphasic
- [3H]thymidine incorporation expressed as percent of control ([2]; with BIM-I (1 uM), PMA 10 nM): 98 ± 11% of control
- [3H]thymidine incorporation expressed as percent of control ([2]; without BIM-I, PMA 10 nM): 120 ± 22% of control
- activity at 0.01 µM ([4]; Mus musculus, B16-F10, 24 h, 10 nM, read-out: [3H]thymidine incorporation (slight increase)): 120 ± 20%
- effect on [3H]thymidine incorporation ([4]; dose range between 0.1 nM to 3 uM): no significant effect

SMILES: CCCC=CC=CC(=O)OC1C(=CC(=O)OC)CC2CC(C(C)O)OC(=O)CC(O)CC3CC(OC(C)=O)C(C)(C)C(O)(CC4CC(=CC(=O)OC)CC(C=CC(C)(C)C1(O)O2)O4)O3 (centres unmarked) [bryostatin 1]
- fold increase of protein kinase C activity (protein kinase C [6]; with BIM-I (1 uM)): 1.07 ± 0.04 fold
- fold increase of protein kinase C activity (protein kinase C [6]; without BIM-I): 3.02 ± 0.3 fold
- inhibition of cell growth (maximal, highest dose tested) ([1]; 4 days, 3 uM): 75±5%
- IC50 ([1]; chronic treatment, 4 days): 50 ± 15 nM
- inhibition of [3H]thymidine incorporation of bryostatin 1 plus bisindolyl-maleimide I relative to 26-epi-bryostatin 1 alone ([2]; combination with BIM-I): same level of inhibition
- [3H]thymidine incorporation expressed as percent of control [2, 9]: 25 ± 5% of control
- [3H]thymidine incorporation expressed as percent of control [2, 10]: 43 ± 2% of control
- cytostatic / cytotoxic effect [3]: arrested growth rather than killed cells
- cytotoxicity at 3 µM ([3]; Mus musculus, B16-F10, 96 h, after treatment in the cell growth assay, read-out: cell death (trypan blue exclusion)): < 1%
- inhibition at 3 µM ([4]; Mus musculus, B16-F10, 3 h, read-out: maximum inhibition of [3H]thymidine incorporation, B16/F10 melanoma, highest dose tested 3 uM): 60%
- IC50 ([4]; Mus musculus, B16-F10, 24 h): 600 ± 80 nM
- side-effects (humans): significant side-effects including myalgia and hypotension
- lethal dose (mice): greater than 200 μg/kg
- antineoplastic effectiveness [8]: directly shown to be effective
- toxicity (C57BL/6 mice; 150 ug/kg injected): only relatively minor toxic effects
- toxicity, lethality (C57BL/6 mice; 500 ug/kg bryostatin 1 injected): lethal for all animals tested by the third day after injection

From patent US6060505A (priority 1999, dated 2000)
